Test results as given in US20230286973A1, “PROTEIN SECRETION INHIBITORS” (KEZAR LIFE SCIENCES, priority 2020, published 2023).
pEC50, pIC50: −log10 of the molar value. Where two headings read alike, the source gives them in different places.

Columns and labels:
[1] = Liver Microsome Stability Assay (human); conditions: human liver microsomes, with NADPH, 1.0 uM compound
Procedure: (§1) Stability of a compound was assessed in the presence of liver microsomes from various sources—mouse, rat, monkey and human liver microsomes. 1.0 uM compound, 0.4% DMSO in 0.1 M Potassium Phosphate with 1.0 mg/mL liver microsomes, were incubated at 37° C. with or without 1 mM NADPH. The samples were quenched at 0, and 30 minutes.

[2] = Liver Microsome Stability Assay (monkey); conditions: monkey liver microsomes, with NADPH, 1.0 uM compound
Procedure: as §1

[3] = test system: multiple myeloma cell line U266B1; assay: U266 Cell Viability Assay; type: cell-based, human; conditions: Homo sapiens, U-266, 48 h, U266B1 cells, Celltiter-Glo
Procedure, shortened: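 Steps: culture in RPMI 1640 plus 10% FBS and 2 mM glutamine; plate and add compound dilutions; incubate 48 hours at 37° C., 5% CO2; add CellTiter-Glo and quantify luciferase signal.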

[4] = Liver Microsome Stability Assay (mouse); conditions: mouse liver microsomes, with NADPH, 1.0 uM compound
Procedure: as §1

[5] = Liver Microsome Stability Assay (rat); conditions: rat liver microsomes, with NADPH, 1.0 uM compound
Procedure: as §1

[6] = test system: TNFα-FL/Gaussia Luciferase; assay: Dox Induced TNFα-FL-Gluc Assay; type: cell-based; conditions: for pIC50: 24 hr Dox induction, 293FRT/TO cells, read-out: 24 hr Dox Inducible TNFaFLGluc 293FRT/TO: Mean IC50; for 24 hr Dox Inducible TNFaFLGluc 293FRT/TO: TNF/PD1: ratio of TNFaFLGluc IC50 to PD1ssGluc IC50
Procedure, shortened: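 Stereoisomer mixtures were tested where stereochemistry is not drawn. Induction used doxycycline added together with compound dilutions in DMSO/media to Flp-In 293 T-REx cells carrying a T-REx-regulated TNFα (aa 1-233)-Gaussia luciferase construct, then incubated at 37 °C, 5% CO2.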

[7] = test system: IL-2-FL/Gaussia Luciferase; assay: Dox Induced IL2-FL-Gluc Assay; type: cell-based; conditions: for pIC50: 24 hr Dox induction, 293FRT/TO cells, read-out: 24 hr Dox Inducible IL2FLGluc 293FRT/TO: Mean IC50; for 24 hr Dox Inducible IL2FLGluc 293FRT/TO: IL2/PD1: ratio of IL2FLGluc IC50 to PD1ssGluc IC50
Procedure, shortened: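 Cells are plated one day ahead, then receive compound dilutions in DMSO/media with doxycycline and incubate at 37° C, 5% CO2. They are Flp-In 293 T-REx cells expressing a full-length IL-2 (amino acids 1-153)–Gaussia luciferase fusion under T-REx control.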

[8] = test system: PD1-ss+10aa/Gaussia Luciferase; assay: Dox-Induced PD1-ss-Gluc Assay; type: cell-based; conditions: 24 hr Dox induction, 293FRT/TO cells, read-out: 24 hr Dox Inducible PD1ssGluc 293FRT/TO: Mean IC50
Procedure, shortened: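 The cell line was made by transfecting Flp-In 293 T-REx cells with a PD1 signal sequence+10aa–Gaussia luciferase fusion under T-REx control and selecting with hygromycin and blasticidin. Cells were seeded, and next day compound plus doxycycline was added at 37 °C, 5% CO2.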

[9] = test system: HER3-ss+4aa/Gaussia Luciferase; assay: Dox-Induced Her3-ss-Gluc Assay; type: cell-based; conditions: 24 hr Dox induction, 293FRT/TO cells, read-out: 24 hr Dox Inducible Her3(ss + 4)Gluc 293FRT/TO: Mean IC50
Procedure, shortened: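 Cells were seeded a day ahead, then given compound diluted in DMSO/media with doxycycline to induce expression of the HER3 signal sequence (+4 aa)–Gaussia luciferase fusion. Incubation was at 37° C., 5% CO2, in a stable Flp-In 293 T-REx line.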

[10] = test system: multiple myeloma cell line NCI-H929; assay: H929 Cell Viability Assay; type: cell-based, human; conditions: Homo sapiens, NCI-H929, 48 h, NCI-H929 cells, Celltiter-Glo
Procedure, shortened: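 Luminescent ATP detection (CellTiter-Glo) after 48 hours of compound exposure measures viability. Cells were plated in RPMI 1640 containing 10% fetal bovine serum and kept at 37° C under 5% CO2.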

[11] = '<=>' given where both are I.A.

| Compound | Liver Microsome Stability (Multiple Species): Human - % Remaining after 30 min w/NADPH [1] | Liver Microsome Stability (Multiple Species): Monkey - % Remaining after 30 min w/NADPH [2] | pEC50 [3] | Liver Microsome Stability (Multiple Species): Mouse - % Remaining after 30 min w/NADPH [4] | Liver Microsome Stability (Multiple Species): Rat - % Remaining after 30 min w/NADPH [5] | pIC50 [6] | pIC50 [7] | pIC50 [8] | pIC50 [9] | pEC50 [10] | pIC50 ([6]; mean) | pIC50 ([7]; mean) | pIC50 ([8]; mean) | pIC50 ([9]; mean) | 24 hr Dox Inducible TNFaFLGluc 293FRT/TO: TNF/PD1 [6] | 24 hr Dox Inducible IL2FLGluc 293FRT/TO: IL2/PD1 [7] | 24 hr Dox Inducible TNFaFLGluc 293FRT/TO: TNF/PD1 [6, 11] | 24 hr Dox Inducible IL2FLGluc 293FRT/TO: IL2/PD1 [7, 11] |
| --- | --- | --- | --- | --- | --- | --- | --- | --- | --- | --- | --- | --- | --- | --- | --- | --- | --- | --- |
| O=C(Nc1nc([C@H]2CCCN2c2ccc(OC3COC3)cc2)cs1)c1cccn1Cc1ccncc1 [Compound A2, (R)-N-(4-(1-(4-(oxetan-3-yloxy)phenyl)pyrrolidin-2-yl)thiazol-2-yl)-1-(pyridin-4-ylmethyl)-1H-pyrrole-2-carboxamide] | 0.92% | 0.18% | < 4.60 | 6.6% | 7.5% | 6.68 | 7.47 | 7.74 | 7.50 | 5.87 |  |  |  |  | 11.6 | 1.9 |  |  |
| NC(=O)c1ccc(N2CCC[C@@H]2c2csc(NC(=O)c3cccn3Cc3ccncc3)n2)cc1 [Compound A19] | 0.48% | 0.17% | < 4.60 | 3.24% | 0.39% | 7.34 | 8.04 | 8.61 | 8.25 | 6.66 |  |  |  |  | 18.4 | 3.7 |  |  |
| CC(C)n1cnc(-c2cccc(-c3csc(NC(=O)c4cccn4Cc4ccnc(F)c4)n3)c2)c1 [Compound A167, 1-((2-fluoropyridin-4-yl)methyl)-N-(4-(3-(1-isopropyl-1H-imidazol-4-yl)phenyl)thiazol-2-yl)-1H-pyrrole-2-carboxamide] | 0.06% | 0.15% | < 4.60 | 12% | 13% | < 4.60 | 5.84 | 6.44 | 6.22 | < 4.60 |  |  |  |  | >69.1 | 4 |  |  |
| CC(=O)Nc1ccc(N2CCC[C@@H]2c2csc(NC(=O)c3cccn3Cc3cc(F)nc(F)c3)n2)cc1 [Compound A122, (R)-N-(4-(1-(4-acetamidophenyl)pyrrolidin-2-yl)thiazol-2-yl)-1-((2,6-difluoropyridin-4-yl)methyl)-1H-pyrrole-2-carboxamide] | 35.8% | 27.3% | 5.10 | 17.1% | 18.8% | 6.72 | 7.80 | 8.10 | 7.76 | 6.45 |  |  |  |  | 24.2 | 2 |  |  |
| O=C(CO)Nc1ccc(N2CCC[C@@H]2c2csc(NC(=O)c3cccn3Cc3ccnc(F)c3)n2)cc1 [Compound A141, (R)-1-((2-fluoropyridin-4-yl)methyl)-N-(4-(1-(4-(2-hydroxyacetamido)phenyl)pyrrolidin-2-yl)thiazol-2-yl)-1H-pyrrole-2-carboxamide] | 2.77% | 0.94% | < 4.60 | 0.97% | 2.9% | 6.30 | 7.27 | 7.56 | 7.36 | 6.04 |  |  |  |  | 18 | 2 |  |  |

Now from value to molecule, other results behind:

| Liver Microsome Stability (Multiple Species): Human - % Remaining after 30 min w/NADPH [1] | Liver Microsome Stability (Multiple Species): Monkey - % Remaining after 30 min w/NADPH [2] | pEC50 [3] | Liver Microsome Stability (Multiple Species): Mouse - % Remaining after 30 min w/NADPH [4] | Liver Microsome Stability (Multiple Species): Rat - % Remaining after 30 min w/NADPH [5] | pIC50 [6] | pIC50 [7] | pIC50 [8] | pIC50 [9] | pEC50 [10] | pIC50 ([6]; mean) | pIC50 ([7]; mean) | pIC50 ([8]; mean) | pIC50 ([9]; mean) | Compound | 24 hr Dox Inducible TNFaFLGluc 293FRT/TO: TNF/PD1 [6] | 24 hr Dox Inducible IL2FLGluc 293FRT/TO: IL2/PD1 [7] | 24 hr Dox Inducible TNFaFLGluc 293FRT/TO: TNF/PD1 [6, 11] | 24 hr Dox Inducible IL2FLGluc 293FRT/TO: IL2/PD1 [7, 11] |
| --- | --- | --- | --- | --- | --- | --- | --- | --- | --- | --- | --- | --- | --- | --- | --- | --- | --- | --- |
| 1.32% | 0.74% | 4.67 | 12.3% | 2.33% | 5.10 | 5.90 | 6.48 | 6.10 | 4.66 |  |  |  |  | O=C(Nc1nc(/C=C/C2CCc3ccccc3N2)cs1)c1cccn1Cc1ccncc1 (stereo not drawn) [Compound B7, (E)-1-(pyridin-4-ylmethyl)-N-(4-(2-(1,2,3,4-tetrahydroquinolin-2-yl)vinyl)thiazol-2-yl)-1H-pyrrole-2-carboxamide] | 23.9 | 3.8 |  |  |
| 0.11% | 0.05% | < 4.60 | 4.32% | 2.65% | < 4.60 | 5.55 | 7.62 | 5.65 | < 4.60 |  |  |  |  | O=C(Nc1nc(/C=C/c2cn(Cc3ccccc3)cn2)cs1)c1cccn1Cc1ccnc(F)c1 [Compound B105, (E)-N-(4-(2-(1-benzyl-1H-imidazol-4-yl)vinyl)thiazol-2-yl)-1-((2-fluoropyridin-4-yl)methyl)-1H-pyrrole-2-carboxamide] | >1050 | 120 |  |  |
| 1.7% | 1.11% | < 4.60 | 66.5% | 41.8% | < 4.60 | < 4.60 | 6.66 | < 4.60 | < 4.60 |  |  |  |  | N#CCn1cnc(/C=C/c2csc(NC(=O)c3cccn3Cc3ccnc(F)c3)n2)c1 [Compound B112, (E)-N-(4-(2-(1-(cyanomethyl)-1H-imidazol-4-yl)vinyl)thiazol-2-yl)-1-((2-fluoropyridin-4-yl)methyl)-1H-pyrrole-2-carboxamide] | >115 | >110 |  |  |
| 0.15% | 0.1% | 4.81 | 2.37% | 0.7% |  |  |  |  | 4.88 | 4.67 | 5.00 | 7.29 | 5.05 | CCOC(=O)C(C)n1cnc(/C=C/c2csc(NC(=O)c3cccn3Cc3ccnc(F)c3)n2)c1C (stereo not drawn) [Compound B119, ethyl (E)-2-(4-(2-(2-(1-((2-fluoropyridin-4-yl)methyl)-1H-pyrrole-2-carboxamido)thiazol-4-yl)vinyl)-5-methyl-1H-imidazol-1-yl)propanoate] |  |  | 418 | 200 |
